Results as given in ChEMBL document CHEMBL1201862, “PubChem BioAssay data set” (2004).
Values joined by “and” are separate entries in the source; they are usually repeats but may differ in a detail not shown here. Equal values may be shown once. Blank lines part the entries; values can stand above or below the compound they belong to. Active and inactive are the calls of the source.

Columns and labels:
Cytochrome P450 2C9 = Cytochrome P450 2C9 (Homo sapiens, UniProt P11712)
Hexokinase HKDC1 [1] = biological target: T1, Hexokinase HKDC1 (Homo sapiens, UniProt Q2TB90); experiment: inhibition of HKDC1 glucose phosphorylation – biochemical, W721R variant, dose response (AID 504729); format: functional
T1 sequence (Q2TB90 whole entry): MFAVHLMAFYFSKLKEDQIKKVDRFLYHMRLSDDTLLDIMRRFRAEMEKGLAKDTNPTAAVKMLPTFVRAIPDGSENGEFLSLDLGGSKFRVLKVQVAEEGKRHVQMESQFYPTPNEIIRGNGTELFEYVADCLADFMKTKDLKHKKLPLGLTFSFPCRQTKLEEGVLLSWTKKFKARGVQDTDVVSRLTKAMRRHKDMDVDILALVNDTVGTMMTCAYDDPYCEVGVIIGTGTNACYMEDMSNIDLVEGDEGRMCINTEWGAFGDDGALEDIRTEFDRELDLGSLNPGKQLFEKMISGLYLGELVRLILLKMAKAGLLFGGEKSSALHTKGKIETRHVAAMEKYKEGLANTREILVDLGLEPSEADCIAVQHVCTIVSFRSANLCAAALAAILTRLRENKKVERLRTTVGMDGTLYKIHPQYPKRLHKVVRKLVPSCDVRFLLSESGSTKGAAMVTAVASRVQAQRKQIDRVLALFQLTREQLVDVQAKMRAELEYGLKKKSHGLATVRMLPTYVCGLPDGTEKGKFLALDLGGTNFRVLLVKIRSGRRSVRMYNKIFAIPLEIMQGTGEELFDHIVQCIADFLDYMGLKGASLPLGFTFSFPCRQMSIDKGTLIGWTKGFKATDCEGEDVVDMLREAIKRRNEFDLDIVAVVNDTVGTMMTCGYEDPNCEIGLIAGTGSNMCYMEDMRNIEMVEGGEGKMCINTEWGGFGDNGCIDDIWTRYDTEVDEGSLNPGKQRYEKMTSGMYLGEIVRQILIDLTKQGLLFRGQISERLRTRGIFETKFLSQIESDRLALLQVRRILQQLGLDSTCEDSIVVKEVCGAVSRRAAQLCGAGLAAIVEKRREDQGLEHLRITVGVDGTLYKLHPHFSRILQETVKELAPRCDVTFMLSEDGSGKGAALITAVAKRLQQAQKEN

Hexokinase HKDC1 [2] = biological target: T1, Hexokinase HKDC1; experiment: SAR analysis of small molecule inhibitors of hexokinase domain containing I (HKDC1) - Set 3. [Related pubchem assays (depositor defined):AID493160, AID493190]; format: functional
Hexokinase HKDC1 [3] = biological target: T1, Hexokinase HKDC1; experiment: SAR analysis of small molecule inhibitors of hexokinase domain containing I (HKDC1). [Related pubchem assays (depositor defined):AID493160, AID493190]; format: functional
Hexokinase HKDC1 [4] = biological target: T1, Hexokinase HKDC1; experiment: analog inhibition of human HKDC1 activity – biochemical, set 2, SAR follow-up (AID 588355); format: functional
[5] = biological target: Eukaryotic translation initiation factor 4E (Mus musculus, UniProt P63073); experiment: blockers of eIF4G binding by eIF4E – biochemical, TR-FRET, dose response (AID 855); format: functional;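 note: potency for disrupting eIF4E binding to eIF4GI seen as loss of FRET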
Hexokinase-1 [6] = biological target: T2, Hexokinase-1 (Homo sapiens, UniProt P19367); experiment: SAR analysis of small molecule inhibitors of hexokinase domain containing I (HKDC1) in the hexokinase 1 selectivity assay. [Related pubchem assays (depositor defined):AID493160, AID493190]; format: functional
T2 sequence (P19367 whole entry): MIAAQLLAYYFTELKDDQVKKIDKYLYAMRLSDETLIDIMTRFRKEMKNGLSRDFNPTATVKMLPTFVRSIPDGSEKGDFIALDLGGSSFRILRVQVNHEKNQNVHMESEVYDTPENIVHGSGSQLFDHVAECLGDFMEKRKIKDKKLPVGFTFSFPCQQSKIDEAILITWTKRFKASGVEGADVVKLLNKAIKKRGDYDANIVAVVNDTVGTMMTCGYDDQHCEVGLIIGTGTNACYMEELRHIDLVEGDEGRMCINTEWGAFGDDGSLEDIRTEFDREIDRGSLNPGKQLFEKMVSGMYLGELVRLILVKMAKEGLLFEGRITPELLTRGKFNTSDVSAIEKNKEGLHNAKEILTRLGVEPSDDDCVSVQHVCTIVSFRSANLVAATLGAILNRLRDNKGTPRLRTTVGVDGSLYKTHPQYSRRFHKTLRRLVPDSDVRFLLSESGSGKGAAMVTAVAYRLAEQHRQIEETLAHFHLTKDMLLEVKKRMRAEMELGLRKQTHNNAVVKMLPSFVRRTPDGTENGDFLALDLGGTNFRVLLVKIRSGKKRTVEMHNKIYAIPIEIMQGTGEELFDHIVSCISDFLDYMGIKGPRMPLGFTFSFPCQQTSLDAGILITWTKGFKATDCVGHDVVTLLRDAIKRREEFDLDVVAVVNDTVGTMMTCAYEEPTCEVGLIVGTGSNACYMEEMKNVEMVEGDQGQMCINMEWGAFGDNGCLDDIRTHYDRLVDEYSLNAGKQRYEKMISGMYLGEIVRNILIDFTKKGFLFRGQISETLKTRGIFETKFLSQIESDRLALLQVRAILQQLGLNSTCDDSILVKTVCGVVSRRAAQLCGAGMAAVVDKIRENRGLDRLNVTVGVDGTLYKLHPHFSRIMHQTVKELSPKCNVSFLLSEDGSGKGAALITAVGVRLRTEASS

[7] = biological target: RNA-editing ligase 1, mitochondrial (Trypanosoma brucei brucei, UniProt P86926); experiment: inhibition of trypanosome RNA editing ligase – biochemical, fluorescence, Trypanosoma brucei, dose response (AID 1117295); format: functional
Cytochrome P450 1A2 = biological target: T3, Cytochrome P450 1A2 (Homo sapiens, UniProt P05177);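 note: PubChem cytochrome P450 panel assay, CYP1A2 panel member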
T3 sequence (P05177 whole entry): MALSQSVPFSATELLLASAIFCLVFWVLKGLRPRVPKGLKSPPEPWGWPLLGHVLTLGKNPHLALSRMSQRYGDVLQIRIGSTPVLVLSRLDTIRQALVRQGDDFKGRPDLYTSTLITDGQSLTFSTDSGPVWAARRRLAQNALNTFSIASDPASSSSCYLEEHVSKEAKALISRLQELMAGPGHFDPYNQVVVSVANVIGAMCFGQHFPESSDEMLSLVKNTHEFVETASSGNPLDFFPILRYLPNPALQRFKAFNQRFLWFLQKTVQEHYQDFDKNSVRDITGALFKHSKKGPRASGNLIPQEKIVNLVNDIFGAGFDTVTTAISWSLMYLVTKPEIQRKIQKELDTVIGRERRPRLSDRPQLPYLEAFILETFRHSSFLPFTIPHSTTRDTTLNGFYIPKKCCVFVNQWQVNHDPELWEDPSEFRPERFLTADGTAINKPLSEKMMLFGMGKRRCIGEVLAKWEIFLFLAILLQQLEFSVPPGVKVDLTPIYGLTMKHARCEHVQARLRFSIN

Hexokinase-1 [8] = biological target: T2, Hexokinase-1; experiment: hexokinase 1 activity inhibitors, potency – biochemical, set 2, resazurin fluorescence coupled readout, selectivity assay for HKDC1 inhibitor project, SAR follow-up (AID 588356); format: functional
[9] = biological target: Platelet-activating factor acetylhydrolase (Mus musculus, UniProt Q60963); experiment: Late stage assay provider results from the probe development effort to identify inhibitors of plasma platelet activating factor acetylhydrolase (pPAFAH): fluorescence-based dose response biochemical gel-based competitive Activity-Based Protein Profiling (ABPP) assay for HTS compounds. [Related pubchem assays (depositor defined):AID463082, AID463092, AID463230, AID588474]; format: cell-free
Chain of Platelet-activating factor acetylhydrolase (Q60963 whole entry): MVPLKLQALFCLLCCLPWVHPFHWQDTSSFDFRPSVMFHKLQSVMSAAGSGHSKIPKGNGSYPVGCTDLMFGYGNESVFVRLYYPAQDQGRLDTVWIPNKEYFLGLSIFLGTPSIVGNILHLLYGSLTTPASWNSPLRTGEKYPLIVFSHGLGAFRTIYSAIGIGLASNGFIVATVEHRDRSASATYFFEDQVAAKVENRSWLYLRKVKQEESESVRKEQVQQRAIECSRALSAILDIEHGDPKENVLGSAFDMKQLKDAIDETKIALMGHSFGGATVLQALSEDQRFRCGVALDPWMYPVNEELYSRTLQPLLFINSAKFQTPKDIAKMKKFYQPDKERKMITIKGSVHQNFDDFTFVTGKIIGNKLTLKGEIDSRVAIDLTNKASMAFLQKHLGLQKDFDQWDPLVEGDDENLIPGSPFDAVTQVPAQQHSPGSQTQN

[10] = biological target: T4, Orexin/Hypocretin receptor type 1 (Homo sapiens, UniProt O43613); experiment: (§1) Fluorescence-based cell-based high throughput dose response assay for antagonists of the orexin 1 receptor (OX1R; HCRTR1). [Related pubchem assays (depositor defined):AID434989, AID435008, AID463079, AID485270, AID492963, AID492964, AID492965, AID493232, AID504717, AID504718]; format: functional
T4 sequence (O43613 whole entry): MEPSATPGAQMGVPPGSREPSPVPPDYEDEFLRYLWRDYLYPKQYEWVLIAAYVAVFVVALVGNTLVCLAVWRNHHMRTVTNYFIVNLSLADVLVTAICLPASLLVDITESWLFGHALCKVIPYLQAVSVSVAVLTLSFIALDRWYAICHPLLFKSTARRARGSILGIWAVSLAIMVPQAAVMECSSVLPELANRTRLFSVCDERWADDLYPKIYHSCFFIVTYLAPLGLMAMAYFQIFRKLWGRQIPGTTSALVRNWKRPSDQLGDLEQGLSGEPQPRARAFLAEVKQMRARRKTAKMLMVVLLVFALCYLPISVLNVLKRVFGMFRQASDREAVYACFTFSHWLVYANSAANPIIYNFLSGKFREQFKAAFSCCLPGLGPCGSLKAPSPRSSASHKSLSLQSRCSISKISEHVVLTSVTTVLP

[11] = biological target: T4, Orexin/Hypocretin receptor type 1; experiment: as §1, with “Homogeneous Time Resolved Fluorescence (HTRF)-based” for “Fluorescence-based”; format: functional
CHO-K1 = experiment: (§2) Counterscreen for antagonists of the orexin 1 receptor (OX1R; HCRTR1): Homogeneous time resolved fluorescence (HTRF)-based cell-based dose response assay to identify antagonists of the parental CHO-K1 cell line. [Related pubchem assays (depositor defined):AID434989, AID435008, AID463079, AID485270, AID492963, AID492964, AID492965, AID493232, AID504699, AID504701]; format: functional; details: Cricetulus griseus
Orexin receptor type 2 [12] = biological target: T5, Orexin receptor type 2 (Homo sapiens, UniProt O43614); experiment: Counterscreen assay for antagonists of the orexin 1 receptor (OX1R; HCRTR1): Fluorescence-based cell-based dose response assay for antagonists of the orexin 2 receptor (OX2R; HCRTR2), run by assay provider.; format: functional
T5 sequence (O43614 whole entry): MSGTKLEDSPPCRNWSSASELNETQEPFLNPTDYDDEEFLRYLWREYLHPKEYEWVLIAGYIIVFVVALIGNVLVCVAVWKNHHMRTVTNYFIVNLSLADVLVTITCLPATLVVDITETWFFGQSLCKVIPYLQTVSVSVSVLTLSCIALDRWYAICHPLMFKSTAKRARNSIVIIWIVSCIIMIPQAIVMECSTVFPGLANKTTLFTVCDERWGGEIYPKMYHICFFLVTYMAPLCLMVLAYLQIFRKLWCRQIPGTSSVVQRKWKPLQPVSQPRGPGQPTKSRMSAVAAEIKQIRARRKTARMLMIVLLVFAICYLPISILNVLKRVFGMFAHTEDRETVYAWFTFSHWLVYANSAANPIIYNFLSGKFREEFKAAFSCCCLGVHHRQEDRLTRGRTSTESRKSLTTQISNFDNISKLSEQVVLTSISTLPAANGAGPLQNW

Orexin receptor type 2 [13] = biological target: T5, Orexin receptor type 2; experiment: Counterscreen assay for antagonists of the orexin 1 receptor (OX1R; HCRTR1): Homogeneous Time Resolved Fluorescence (HTRF)-based cell-based dose response assay for antagonists of the orexin 2 receptor (OX2R; HCRTR2), run by assay provider.; format: functional
[14] = as §2, with “Fluorescence-based” for “Homogeneous time resolved fluorescence (HTRF)-based”, “cell-based high throughput” for “cell-based”, “CHO” for “CHO-K1”; format: functional
[15] = disruptors of CAL PDZ reporter peptide binding – biochemical, fluorescence polarization, untagged CAL PDZ, dry powder, dose response (AID 602255); format: functional
[16] = biological target: Cystic fibrosis transmembrane conductance regulator/Golgi-associated PDZ and coiled-coil motif-containing protein (Homo sapiens, UniProt P13569+Q9HD26); experiment: disruption of CAL PDZ–reporter peptide interaction – biochemical, fluorescence polarization, Cer-tagged CAL PDZ, dry powder, dose response (AID 602253); format: functional
Chain of Cystic fibrosis transmembrane conductance regulator/Golgi-associated PDZ and coiled-coil motif-containing protein (P13569 whole entry, other chains not shown, canonical isoform): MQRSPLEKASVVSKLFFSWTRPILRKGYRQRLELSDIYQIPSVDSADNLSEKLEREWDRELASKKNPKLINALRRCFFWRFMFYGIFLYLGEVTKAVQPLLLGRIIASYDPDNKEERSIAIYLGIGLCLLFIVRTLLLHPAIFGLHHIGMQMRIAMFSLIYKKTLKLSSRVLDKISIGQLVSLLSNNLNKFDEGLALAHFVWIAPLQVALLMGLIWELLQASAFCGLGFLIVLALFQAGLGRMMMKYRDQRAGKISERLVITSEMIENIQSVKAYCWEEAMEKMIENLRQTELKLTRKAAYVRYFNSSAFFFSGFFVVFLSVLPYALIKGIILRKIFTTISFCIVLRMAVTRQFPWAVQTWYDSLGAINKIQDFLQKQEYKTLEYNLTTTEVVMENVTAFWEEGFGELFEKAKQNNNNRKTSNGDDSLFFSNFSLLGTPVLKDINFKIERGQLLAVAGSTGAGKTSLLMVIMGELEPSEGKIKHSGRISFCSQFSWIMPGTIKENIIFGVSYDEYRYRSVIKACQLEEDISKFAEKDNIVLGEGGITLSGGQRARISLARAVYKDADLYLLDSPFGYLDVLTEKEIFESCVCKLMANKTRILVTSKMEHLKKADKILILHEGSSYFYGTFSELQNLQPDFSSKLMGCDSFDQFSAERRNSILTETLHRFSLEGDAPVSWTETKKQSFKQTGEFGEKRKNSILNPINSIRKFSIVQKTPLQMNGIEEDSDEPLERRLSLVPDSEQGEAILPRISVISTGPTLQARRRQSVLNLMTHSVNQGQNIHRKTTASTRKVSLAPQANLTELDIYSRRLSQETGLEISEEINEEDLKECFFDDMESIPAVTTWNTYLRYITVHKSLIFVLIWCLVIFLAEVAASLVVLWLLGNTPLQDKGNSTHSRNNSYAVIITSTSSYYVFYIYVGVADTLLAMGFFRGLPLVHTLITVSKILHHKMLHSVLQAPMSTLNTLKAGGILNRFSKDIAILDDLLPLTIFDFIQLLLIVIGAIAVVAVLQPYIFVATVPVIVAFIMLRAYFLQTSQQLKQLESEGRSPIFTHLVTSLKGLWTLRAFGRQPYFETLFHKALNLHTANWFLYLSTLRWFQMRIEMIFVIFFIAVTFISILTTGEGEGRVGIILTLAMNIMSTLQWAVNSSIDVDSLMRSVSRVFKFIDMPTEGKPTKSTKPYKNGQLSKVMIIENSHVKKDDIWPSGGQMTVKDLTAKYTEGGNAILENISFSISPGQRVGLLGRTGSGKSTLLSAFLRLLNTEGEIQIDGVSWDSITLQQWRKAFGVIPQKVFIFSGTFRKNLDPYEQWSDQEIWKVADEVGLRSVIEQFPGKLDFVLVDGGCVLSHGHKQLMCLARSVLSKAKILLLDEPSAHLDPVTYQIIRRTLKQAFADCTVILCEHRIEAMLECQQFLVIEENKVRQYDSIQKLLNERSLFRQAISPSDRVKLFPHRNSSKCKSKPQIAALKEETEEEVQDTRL

[17] = biological target: Casein kinase I isoform delta (Homo sapiens, UniProt P48730); format: functional;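 note: measured as one member (CSNK1D) of a kinome panel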
[18] = biological target: Eukaryotic elongation factor 2 kinase (Homo sapiens, UniProt O00418); format: functional
Chain of Eukaryotic elongation factor 2 kinase (O00418 whole entry): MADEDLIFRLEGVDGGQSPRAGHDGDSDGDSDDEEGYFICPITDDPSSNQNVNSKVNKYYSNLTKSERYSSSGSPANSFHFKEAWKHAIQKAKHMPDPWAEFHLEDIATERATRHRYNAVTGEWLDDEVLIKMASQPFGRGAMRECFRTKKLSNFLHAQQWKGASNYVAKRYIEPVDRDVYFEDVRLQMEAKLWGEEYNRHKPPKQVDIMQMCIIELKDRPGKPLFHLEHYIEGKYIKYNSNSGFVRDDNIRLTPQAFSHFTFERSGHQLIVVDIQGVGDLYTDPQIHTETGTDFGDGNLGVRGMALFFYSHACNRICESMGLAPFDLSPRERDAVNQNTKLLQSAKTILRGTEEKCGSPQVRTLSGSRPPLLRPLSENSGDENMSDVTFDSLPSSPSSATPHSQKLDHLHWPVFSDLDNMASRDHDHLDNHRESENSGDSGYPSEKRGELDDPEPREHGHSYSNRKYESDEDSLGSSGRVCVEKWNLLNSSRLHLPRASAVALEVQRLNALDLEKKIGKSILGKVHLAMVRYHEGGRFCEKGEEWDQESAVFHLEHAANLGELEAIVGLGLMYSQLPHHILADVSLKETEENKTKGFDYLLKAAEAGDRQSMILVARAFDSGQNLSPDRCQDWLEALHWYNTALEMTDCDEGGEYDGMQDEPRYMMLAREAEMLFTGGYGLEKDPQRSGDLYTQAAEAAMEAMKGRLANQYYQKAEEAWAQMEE

[19] = biological target: DNA dC->dU-editing enzyme APOBEC-3G (Homo sapiens, UniProt Q9HC16); experiment: inhibition of APOBEC3G ssDNA deamination – biochemical, fluorescence, single-stranded DNA substrate, SAR follow-up (AID 602136); format: functional; details: read-out: IC50_Mean
Chain of DNA dC->dU-editing enzyme APOBEC-3G (Q9HC16 whole entry): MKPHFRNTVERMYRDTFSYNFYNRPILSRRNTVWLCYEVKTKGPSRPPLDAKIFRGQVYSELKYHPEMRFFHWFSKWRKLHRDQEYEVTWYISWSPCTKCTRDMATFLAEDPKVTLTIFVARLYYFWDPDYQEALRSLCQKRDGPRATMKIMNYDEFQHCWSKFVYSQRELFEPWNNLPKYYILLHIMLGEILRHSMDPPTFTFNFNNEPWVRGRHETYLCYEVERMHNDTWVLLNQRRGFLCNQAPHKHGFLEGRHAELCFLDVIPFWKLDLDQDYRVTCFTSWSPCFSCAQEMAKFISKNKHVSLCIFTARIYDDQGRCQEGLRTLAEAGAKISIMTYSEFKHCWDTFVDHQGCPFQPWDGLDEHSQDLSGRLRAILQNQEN

[20] = biological target: DNA dC->dU-editing enzyme APOBEC-3A (Homo sapiens, UniProt P31941); experiment: SAR analysis of small molecule inhibitors of APOBEC3A DNA Deaminase via a fluorescence-based single-stranded DNA deaminase assay.; format: functional; details: read-out: IC50_Mean
[21] = biological target: Mitogen-activated protein kinase kinase kinase kinase 4 (Homo sapiens, UniProt O95819); format: functional
Chain of Mitogen-activated protein kinase kinase kinase kinase 4 (O95819 whole entry): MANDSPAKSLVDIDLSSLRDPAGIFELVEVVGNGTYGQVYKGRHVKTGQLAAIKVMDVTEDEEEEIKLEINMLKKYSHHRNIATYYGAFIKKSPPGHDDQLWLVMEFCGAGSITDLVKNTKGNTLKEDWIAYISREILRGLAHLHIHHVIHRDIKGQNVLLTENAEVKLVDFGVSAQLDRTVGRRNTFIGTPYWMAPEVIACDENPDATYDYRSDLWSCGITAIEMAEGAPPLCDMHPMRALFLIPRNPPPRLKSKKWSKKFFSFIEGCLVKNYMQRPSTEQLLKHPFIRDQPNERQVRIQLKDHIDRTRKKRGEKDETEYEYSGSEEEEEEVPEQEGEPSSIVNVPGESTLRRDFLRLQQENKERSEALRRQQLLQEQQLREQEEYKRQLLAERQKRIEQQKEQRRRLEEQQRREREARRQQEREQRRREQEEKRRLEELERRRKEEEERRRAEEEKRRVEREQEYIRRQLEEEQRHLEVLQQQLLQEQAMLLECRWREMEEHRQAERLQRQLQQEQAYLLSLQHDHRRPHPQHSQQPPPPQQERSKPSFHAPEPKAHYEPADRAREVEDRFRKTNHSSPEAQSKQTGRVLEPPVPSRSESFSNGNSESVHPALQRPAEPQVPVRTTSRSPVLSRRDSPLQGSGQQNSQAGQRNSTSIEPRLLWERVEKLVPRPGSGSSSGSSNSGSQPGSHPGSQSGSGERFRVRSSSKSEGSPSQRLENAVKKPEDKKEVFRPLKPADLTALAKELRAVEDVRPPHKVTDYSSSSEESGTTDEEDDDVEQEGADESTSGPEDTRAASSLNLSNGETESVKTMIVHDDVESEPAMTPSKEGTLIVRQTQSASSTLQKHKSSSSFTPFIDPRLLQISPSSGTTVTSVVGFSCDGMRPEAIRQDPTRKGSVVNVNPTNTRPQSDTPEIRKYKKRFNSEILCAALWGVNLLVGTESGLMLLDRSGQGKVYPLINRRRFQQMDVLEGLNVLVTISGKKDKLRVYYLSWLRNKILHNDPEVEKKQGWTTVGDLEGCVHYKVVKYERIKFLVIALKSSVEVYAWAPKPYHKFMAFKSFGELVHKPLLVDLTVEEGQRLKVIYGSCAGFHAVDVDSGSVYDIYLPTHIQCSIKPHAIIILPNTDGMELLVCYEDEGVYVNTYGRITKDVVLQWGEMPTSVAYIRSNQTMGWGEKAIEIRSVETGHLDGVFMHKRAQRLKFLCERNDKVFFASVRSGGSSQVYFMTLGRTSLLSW

[22] = biological target: Serine/threonine-protein kinase pim-1 (Homo sapiens, UniProt P11309); format: functional
Chain of Serine/threonine-protein kinase pim-1 (P11309 whole entry): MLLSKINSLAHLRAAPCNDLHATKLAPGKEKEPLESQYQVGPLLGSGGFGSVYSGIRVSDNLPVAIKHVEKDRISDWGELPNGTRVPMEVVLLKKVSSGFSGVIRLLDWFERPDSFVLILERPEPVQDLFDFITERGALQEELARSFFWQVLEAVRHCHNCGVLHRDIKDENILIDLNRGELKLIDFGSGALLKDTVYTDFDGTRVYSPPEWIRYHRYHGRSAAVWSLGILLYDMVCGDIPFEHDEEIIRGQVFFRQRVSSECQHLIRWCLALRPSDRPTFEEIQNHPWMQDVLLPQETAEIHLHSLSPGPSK

AC50 (Cytochrome P450 2C9): 7.94 µM (inconclusive)
IC50 (Hexokinase HKDC1 [1]): 8.47 µM (active)
IC50 (Hexokinase HKDC1 [2]): > 80 µM (inactive) and 12.1 µM (active)
IC50 (Hexokinase HKDC1 [3]): 12.4 µM (active)
IC50 (Hexokinase HKDC1 [4]): > 80 µM (inactive) and 11.7 µM (active)
IC50 [5]: 9.21 µM (active)
IC50 (Hexokinase-1 [6]): > 80 µM (inactive)
IC50 [7]: 14.7 µM (inactive)
AC50 (Cytochrome P450 1A2): 35.5 µM (inconclusive)
IC50 (Hexokinase-1 [8]): > 80 µM (inactive)
SMILES: COc1cc2c(cc1OC)-c1cc(NCc3ccccn3)nc(=O)n1CC2

IC50 [9]: 0.469 µM (active)
SMILES: O=C(Oc1ccc(-c2ccccc2)cc1)N1CCOCC1

SMILES: Cc1cccc(OCCSc2nc3ccccc3n2CCC(=O)O)c1
IC50 [10]: 19.6 µM (inactive)
IC50 [11]: 1.57 µM (active)
IC50 (CHO-K1): > 66.2 µM (inactive)
IC50 (Orexin receptor type 2 [12]): 88.2 µM (inactive)
IC50 (Orexin receptor type 2 [13]): > 50 µM (inactive)
IC50 [14]: > 49.8 µM (inactive)

AC50 [16]: 41.5 µM (active)
SMILES: CCc1ccc(S(=O)(=O)/N=C2\C=C(SC3=NCN=N3)C(=O)c3ccccc32)cc1
AC50 [15]: 44.5 µM (active)

SMILES: CNC1CC2OC(C)(C1OC)n1c3ccccc3c3c4c(c5c6ccccc6n2c5c31)C(=O)NC4 (stereo not given)
Ki [17]: > 2.51 µM (inactive)
Ki [18]: > 1 µM (inactive)

SMILES: Cc1nnc(NC(=O)C2(c3ccc(F)cc3)CCC2)s1
IC50 [19]: > 99 µM (inactive)
IC50 [20]: > 99 µM (inactive)

Ki [21]: 1.26 µM (active)
Ki [22]: 2 µM (active)
SMILES: Clc1ccc(OCC2CN(Cc3c[nH]c4ncccc34)CCO2)cc1 (stereo not given)
